# What was measured:
# [1] = tested on: AMATA (common water hemp); experiment: Greenhouse post-emergence weed control, damage vs untreated (AMATA); format: in vivo, Amaranthus tuberculatus; details: 20 DAT, adjuvant g ai/ha: none (CE1-A)
# Description: (§1) A greenhouse study was conducted to evaluate the effect of the alkylether sulfates of formula (I) and other adjuvants on the weed control efficacy of glufosinate. Seedlings of grass plants (AVEFA, ECHCG, DIGSA and SETVI) and broadleaf weeds (KCHSC, CHEAL, AMAPA, AMATA and ABUTH) were grown to a height of 3 to 20 cm, depending on the plant habit in 10×10×10 cm pots filled with sandy planting soil (Limburgerhof soil). The weeds were treated with postemergence applications of glufosinate ammonium at the respective application rates given in the following tables, either alone or combined with various amounts of the respective adjuvants.
# (§2) For this, the herbicide formulation and the respective adjuvant were introduced into tap water to obtain the spray liquor. […] The spray liquor was then applied to the plant a spray volume of 200 l/ha using a sprayer (XR Teejet 110015).
# (§3) The test period extended over 21 days. During this time, the plants were tended, and their response to the treatments with active compound was evaluated.
# (§4) The evaluation for the damage caused by the chemical compositions was carried out using a scale from 0 to 100%, compared to the untreated control plants. Here, 0 means no damage and 100 means complete destruction of the plants.
# (§5) The plants used in the greenhouse experiments belonged to the following species:
# (§6) The results are summarized in the following tables 1 to 15 that show the applied doses of the individual actives as gram of active ingredient per hectare (g ai/ha), the herbicidal activity of the individual actives and of their combinations in post-emergence application assessed 14 and 28 day after treatment (DAT), respectively.
# [2] = tested on: ØBLV (average value of KCHSC, CHEAL, AMAPA, AMATA and ABUTH); experiment: Greenhouse post-emergence weed control, average over broadleaf weeds (ØBLV); format: in vivo; details: 20 DAT, adjuvant g ai/ha: none (CE1-A)
# Description: as §1, §2, §3, §4, §5, §6
# [3] = tested on: DIGSA (large crabgrass); experiment: Greenhouse post-emergence weed control, damage vs untreated (DIGSA); format: in vivo, Digitaria sanguinalis; details: 20 DAT, adjuvant g ai/ha: none (CE1-A)
# Description: as §1, §2, §3, §4
# (§7) The plants used in the greenhouse experiments belonged to the following species: […]
# [4] = tested on: Øgras (average value of AVEFA, ECHCG, DIGSA and SETVI); experiment: Greenhouse post-emergence weed control, average over grasses (Øgras); format: in vivo; details: adjuvant g ai/ha: none (CE1-A)
# Description: as §1, §2, §3, §4, §5
# (§8) The results are summarized in the following tables 1 to 15 that show the applied doses of the individual actives as gram of active ingredient per hectare (g ai/ha), the herbicidal activity of the individual […]
# [5] = tested on: AVEFA (wild oat); experiment: Greenhouse post-emergence weed control, damage vs untreated (AVEFA); format: in vivo, Avena fatua; details: adjuvant g ai/ha: none (CE1-A)
# Description: as §1, §2, §3, §4, §5, §8
# [6] = tested on: ABUTH (velvetleaf); experiment: Greenhouse post-emergence weed control, damage vs untreated (ABUTH); format: in vivo, Abutilon theophrasti; details: 20 DAT, adjuvant g ai/ha: none (CE1-A)
# Description: as §1, §2
# […] During this time, the plants were tended, and their response to the treatments with active compound was evaluated.
# as §4, §7
# [7] = tested on: HORVW (winter barley); experiment: Greenhouse post-emergence weed control, damage vs untreated (HORVW); format: in vivo, Hordeum vulgare; details: 20 DAT, adjuvant g ai/ha: none (CE1-A)
# [8] = tested on: CHEAL (lambsquarter); experiment: Greenhouse post-emergence weed control, damage vs untreated (CHEAL); format: in vivo, Chenopodium album; details: adjuvant g ai/ha: none (CE1-A)
# Description: as §1, §2, §3, §4, §5, §8
# [9] = tested on: AMAPA (palmer amaranth); experiment: Greenhouse post-emergence weed control, damage vs untreated (AMAPA); format: in vivo, Amaranthus palmeri; details: 20 DAT, adjuvant g ai/ha: none (CE1-A)
# Description: as §1, §2, §3, §4, §5, §6
# [10] = tested on: KCHSC (kochia); experiment: Greenhouse post-emergence weed control, damage vs untreated (KCHSC); format: in vivo, Kochia scoparia; details: 20 DAT, adjuvant g ai/ha: none (CE1-A)
# Description: as §1, §2, §3, §4, §7
# [11] = tested on: ECHCG (barnyardgrass); experiment: Greenhouse post-emergence weed control, damage vs untreated (ECHCG); format: in vivo, Echinochloa crus-galli; details: adjuvant g ai/ha: none (CE1-A)
# Description: as §1, §2, §3, §4, §5, §8
# [12] = tested on: SETVI (green foxtail); experiment: Greenhouse post-emergence weed control, damage vs untreated (SETVI); format: in vivo, Setaria viridis; details: adjuvant g ai/ha: none (CE1-A)
# Description: as §1, §2, §3, §4, §5, §8
# [13] = 75 g ai/ha glufosinate rac., 56 (IE1-A), 62.125 (IE1-B), 51.625 (CE2-A, CE2-B), 55.75 (CE2-C), 66.75 (CE2-D), 103.25 (CE2-E)
# [14] = 150 g ai/ha glufosinate rac., 112 (IE1-A), 124.25 (IE1-B), 103.25 (CE2-A, CE2-B), 111.5 (CE2-C), 133.5 (CE2-D), 206.5 (CE2-E)
# [15] = 300 g ai/ha glufosinate rac., 223 (IE1-A, CE2-C), 248.5 (IE1-B), 206.5 (CE2-A, CE2-B), 267 (CE2-D), 413 (CE2-E)
# [16] = 600 g ai/ha glufosinate rac., 446 (IE1-A, CE2-C), 497 (IE1-B), 413 (CE2-A, CE2-B), 534 (CE2-D), 826 (CE2-E)
smiles,measurement,setting,value
"CP(=O)(O)CCC(N)C(=O)O.N (racemic) [CE1-A, ammonium (2RS)-2-amino-4-(methylphosphinato)butyric acid]",% activity,[1]; [13],20%
same,% activity,[1]; [14],98%
same,% activity,[1]; [15],85%
same,% activity,[1]; [16],98%
same,% activity (ØBLV),[2]; [13],15%
same,% activity (ØBLV),[2]; [14],43%
same,% activity (ØBLV),[2]; [15],55%
same,% activity (ØBLV),[2]; [16],57%
same,% activity,[3]; [13],0%
same,% activity,[3]; [14],0%
same,% activity,[3]; [15],50%
same,% activity,[3]; [16],80%
same,% activity (Øgras),[4]; [13],21%
same,% activity (Øgras),[4]; [14],24%
same,% activity (Øgras),[4]; [15],40%
same,% activity (Øgras),[4]; [16],51%
same,% activity,[5]; [13],5%
same,% activity,[5]; [14],0%
same,% activity,[5]; [15],10%
same,% activity,[5]; [16],25%
same,% activity,[6]; [13],5%
same,% activity,[6]; [14],20%
same,% activity,[6]; [15],75%
same,% activity,[6]; [16],60%
same,% activity,[7]; [13],0%
same,% activity,[7]; [14],0%
same,% activity,[7]; [15],0%
same,% activity,[8]; [13],0%
same,% activity,[8]; [14],0%
same,% activity,[8]; [15],10%
same,% activity,[8]; [16],10%
same,% activity,[9]; [13],50%
same,% activity,[9]; [14],98%
same,% activity,[9]; [15],98%
same,% activity,[9]; [16],98%
same,% activity,[10]; [13],0%
same,% activity,[10]; [14],0%
same,% activity,[10]; [15],5%
same,% activity,[10]; [16],20%
same,% activity,[11]; [13],0%
same,% activity,[11]; [14],0%
same,% activity,[11]; [15],0%
same,% activity,[11]; [16],0%
same,% activity,[12]; [13],80%
same,% activity,[12]; [14],95%
same,% activity,[12]; [15],98%
same,% activity,[12]; [16],98%

# From patent US20260344661A1, “USE OF AN ALKYLETHER SULFATE FOR IMPROVING THE EFFICACY OF HERBICIDES” (BASF SE, priority 2022, published 2026)
